≈ marks a conversion by molar mass, not a printed value. Where “and” joins values, the source holds several entries; their conditions need not be identical. Identical values can stand only once. Like-named read-outs stand apart in the source and are kept apart here.
Key:
[1] = test system: HIV-1 isolates IIIB and/or RF in CEM cells; test: SRI primary anti-HIV screen, MTT assay of inhibition of HIV-induced cell killing in CEM cells; type: cell-based; settings: for SRI CEM IC50: CEM cells; for IC50: Human immunodeficiency virus 1, IIIB, CCRF-CEM, read-out: SRI CEM IC50 ng/mL, CEM cells
Method: A. Principle of MTT Assay:
This assay involves the conversion of the tetrazolium dye MTT to a colored formazan product by mitochondrial enzymes in metabolically active cells. This assay system is used at SRI to screen over 30,000 compounds per year. Briefly, the assay involves the infection of CEM or MT2 cells in round bottom 96-well plates. The compound of interest is added just prior to infection. Following 6 days of incubation at 37° C. the plates are stained with MTT. The results of the assay are quantitated spectrophotometrically on a Molecular Devices Vmax plate reader. The data are analyzed by linear regression utilizing an in-house software program to calculate antiviral activity (IC25, IC50, IC95) and toxicity (TC25, TC50, TC95) as well as other values.
Primary antiviral assays are routinely performed in CEM or MT-2 cells.
B. Standard Screening Assays in CEM and MT-2 Cells
1. Compound dilution and delivery to the plates
Drugs are solubilized in the appropriate vehicle such as distilled water or DMSO if necessary. Latex gloves, lab coats and masks are used during all phases of the handling process to prevent exposure to potentially harmful agents. The drug is prepared at the appropriate concentration and stored at −20° C. until used by the screening laboratory. The first dilution of each compound is made in a dilution tube with medium to yield a concentration two-fold that of the highest test concentration. Sterile titer tubes are then used to make serial one half-log dilutions of each compound. Following drug dilution, the diluted compound is added to the appropriate well of a 96-well microtiter plate. Up to 12 dilutions can be assayed conveniently in triplicate on a single plate with all appropriate controls including cell control, virus control, toxicity control, drug color control, medium control and plastic (background) control. When testing includes only six dilutions, two drugs can be assayed on a single microtiter plate. The drugs are added to the plate in a final volume of 100 microliters.
During the time the drug dilutions are prepared, cells are washed and counted. Viability is monitored by trypan blue dye exclusion and assays are not performed if the viability falls below 90%. Cells are maintained in an exponential growth phase and are split 1:2 on the day prior to assay to assure exponential growth rate.
For the primary screen, the cell lines utilized are CEM and MT-2. Unless otherwise indicated, the medium used is RPMI 1640 with 10% heat-inactivated fetal calf serum (FBS), glutamine and antibiotics.
Cells are propagated at 37° C. in an atmosphere of 5% CO2 in air. The virus employed for this work is HIV-1 isolates IIIB and/or RF, which are prepared by an acute infection process.
Briefly, virus-infected cells are pelleted on a daily basis beginning at three days post-infection until the virus has killed all of the cells in the culture. Reverse transcriptase activity and p24 ELISA are used to identify pools with the greatest amout of virus.
These 24-hour harvests are pooled, filtered and frozen at −90° C. Prior to use in the assay, the infectious pool of virus is titered on all available cell lines in order to determine the amount of virus required in the antiviral assay.
In general, pools produced by the acute infection method require the addition of one microliter of infectious virus per well resulting in the screening of drugs at a multiplicity of infection of 0.01. In this manner, enough virus is prepared and frozen to complete over one thousand microtiter plates, allowing the testing of up to two thousand compounds from a single stock of infectious virus.
Virus infection of the CEM and MT-2 cells for the antiviral assay is carried out in a bulk infection process.

[2] = test system: Viral SN123 infected CEM cells
Method: Purpose: To determine IC50 CC50 for compounds:
Media A [1% DMSO] (100 microliters DMSO+9.9 ml media A)
CEM cells @ [1×10^4] cells/ml (4 plate=40 ml) (6 plate=60 ml)
(need 70 microliters of each)
A-D at [10 mM] in 100% DMSO
4 or 6 u-bottom 96-well plates
4 flat bottom 96-well plates for dilutions
8-10 boxes of sterile costar tips
Approximately 10 reagent trays
1000 cells/well=1×10^4 cells/ml=1000 cells/100 microliters 200 microliters=total volume in a well
Cell Preparation and Plating of Cells, Media A and Media A (1% DMSO)
a. Number a 96-well tissue culture plate for each compound tested, one for a control plate, and one for the control compound.
b. Count cells on hemacytometer and resuspend them in 40 ml or 80 ml of Media A at a concentration of [1×10^4]0 cells/ml.
Counting Cells on a Hemacytomer:
Label two 1.8 ml nuc tubes 1 and 2.
Put 0.5 ml of well mixed CEM cells (in growth phase) in tube 1.
Put 50 micoliters PBS and 40 microliters of trypan blue into tube 2.
Mix up the cells in tube 1 then remove 10 microliters of cells and put them into tube 2.
Mix well in tube 2, then remove 10 microliters of the stained cells and put them on the hemacytometer.
Count the number of cells in the center square of the hemacytometer with the microscope set on 10×.
The concentration of the stock CEM's in cells/ml is as follows:
Cells counted×1×10^5=Concentration of CEM's in [cells/ml].
c. Add 200 microliters Media A to: A1 of places 2-6. These are Blanks. A4-H4 of plate 1. These are Blanks.
d. Add 5 microlicers Media A to all wells of Rows A-D of plates 2-6 except A1 (the top half of each plate).
e. Add 50 microliters of Media A to wells A1-D3 of Plate 1 (the top half of the plate).
f. Add 50 microliters Media A[l% DMSO] to all wells of Columns 1-3 of plate 1.
This puts 1000 cells/well.
h. Put plates in an incubator while doing drug dilutions.
Preparation Control and Test Drugs
(1) Put 60 microliters of DMSO into all wells of Columns 2-12, Rows A-E.
(3) Put 70 microliters of A [10 mM] at 100% DMSO into well B1.
(4) Put 70 microliters of B [10 mM] at 100% DMSO into well C1.
(5) Put 70 microliters of C [10 mM] at 100% DMSO into well D1.
(6) Put 70 microliters of D [10 mM] at 100% DMSO into well E1.
Change tips before each dilution.
(1) In rows A-E of another plate make a row for the first 1:10 dilution to correspond to each compound's 100% DMSO row.
A into Row B for the first 1:10 dilution.
B into Row C for the first 1:10 dilution.
C into Row D for the first 1:10 dilution.
D into Row E for the first 1:10 dilution.
(2) Put 180 microliters of media A into all wells of rows A-E corresponding to the 100% DMSO rows. 2.5 ml needed per row.
(3) Remove 20 microliters from all wells of each row of the 100% DMSO rows and transfer it to the corresponding 1:10 row.
(1) Make a plate for every 3 compounds to be tested.
Use 20 ml of media A per plate.
(3) Transfer 25 microliters of each compound from the row in the 1:10 dilution to the corresponding two rows on the 1:100 dilution plate changing tips before each transfer.
Addition of Viral SN123 to Plates
a. Thaw Sn123 in 37° C. water bath for approximately 10 minutes.
b. Dilute Sn123 1:16 by adding 1 ml of Sn123 to 15 ml of media A.
c. Add 50 microliters of Sn123 [1:16] to wells E1-H12 of plates 2-6 and to wells E1-H3 of plate 1.
Addition of Drugs to Plates
a. Add 50 microliters of the control and test drugs from the rows in the 1:100 dilution plates to the appropriate rows in the final plates (changing tips before each transfer). One row in the 1:100 plate will do 4 rows in the final plate. Leave A1 blank.
b. Incubate all plates 7 days at 37° C. 5% CO2.
c. Do Xtt protocol on day 7 as follows:
d. Preparation of Xtt/PMS Solution: (4 plate=20 ml) (6 plate=30 ml)
100 microliters [100 mM] PMS+4.9 ml PBS=PMS at [2 mM]
(2) Heat 500 ml of H2O in microwave for 5 minutes on high.
(3) Put 20 or 30 ml of phenol red RPMI in a 50 ml centrifuge tube.
(4) Put the RPMI in the beaker of hot water.
(5) Add 20 or 30 mg of XTT to the warmed up RPMI.

[3] = Human immunodeficiency virus 1, CCRF-CEM, read-out: Whole cell IC50 nM, CEM cells, values in parentheses are 35B in same assay
[4] = Human immunodeficiency virus 1, CCRF-CEM, read-out: Whole cell IC90 nM, CEM cells, values in parentheses are 35B in same assay
[5] = read-out: Whole cell IC50 nM, CEM cells, values in parentheses are 35B in same assay
[6] = read-out: Whole cell IC90 nM, CEM cells, values in parentheses are 35B in same assay

Compound: CC(C)(C)NC(=O)C1CC2CCCCC2CN1CC(O)C(Cc1ccccc1)NC(=O)c1c(Cl)ccc(O)c1Cl (stereo not drawn) [Example 17, [3S-(3R*,4aR*,8aR*,2′S*,3′R*)]-2-[2′-Hydroxy-3′-phenylmethyl-4′-aza-5′-oxo-5′-(2″,6″-dichloro-3″-hydroxyphenyl)pentyl] decahydroisoquinoline-3-N-t-butylcarboxamide]
- SRI CEM IC50 [1]: 2.9 µg/mL and 2.5 µg/mL

Compound: CC(C)(C)NC(=O)C1CC2CCCCC2CN1CC(O)C(Cc1ccccc1)NC(=O)c1cccnc1Cl (stereo not drawn) [Example 2, [3S-(3R*,4aR*,8aR*,2′S*,3′R*)]-2-[2′-Hydroxy-3′-phenylmethyl-4′-aza-5′-oxo-5′-(2″-chloro-pyrid-3″-yl)pentyl] decahydroisoquinoline-3-N-t-butylcarboxamide]
- SRI CEM IC50 [1]: 1.58 µg/mL
- IC50 [1]: 1380 ng/mL (≈ 2.55 µM)

Compound: Cc1c(O)cccc1C(=O)N[C@@H](CSc1ccc2ccccc2c1)[C@H](O)CN1CCCC[C@H]1C(=O)NC(C)(C)C [Example 25, [2S-(2R*,2′S*,3′S*)]-1-[2′-Hydroxy-3′-(naphth-2-ylthiomethyl-4′-aza-5′-oxo-5′-(2″-methyl-3″-hydroxyphenyl)pentyl]piperidine-2-N-t-butylcarboxamide]
- IC50 [1]: 211 ng/mL (≈ 0.374 µM)

Compound: Cc1c(O)cccc1C(=O)NC(Cc1ccccc1)C(O)CN1CC2CCCCC2CC1C(=O)NC(C)(C)C (stereo not drawn) [Example 12, [3S-(3R*,4aR*,8aR*,2′S*,3′R*)]-2-[2′-Hydroxy-3′-phenylmethyl-4′-aza-5′-oxo-5′-(2″-methyl-3″-hydroxyphenyl)pentyl] decahydroisoquinoline-3-N-t-butylcarboxamide]
- IC50 ([2]; Human immunodeficiency virus 1, CCRF-CEM, read-out: Whole cell IC50 nM, CEM cells, tested as the mesylate salt): 35.7 nM
- IC50 [2, 3]: 15 nM
- IC90 ([2]; Human immunodeficiency virus 1, CCRF-CEM, read-out: Whole cell IC90 nM, CEM cells, tested as the mesylate salt): 91.8 nM
- IC90 [2, 4]: 47.8 nM
- IC50 [2, 5]: 22.3 nM
- IC90 [2, 6]: 73.2 nM
- SRI CEM IC50 [1]: 0.0118 µg/mL
- IC50 [1]: 16.5 ng/mL (≈ 0.0308 µM)

Compound: CC(C)(C)NC(=O)C1CC2CCCCC2CN1CC(O)C(Cc1ccccc1)NC(=O)c1ccccc1C(F)(F)F (stereo not drawn) [Example 15, [3S-(3R*,4aR*,8aR*,2′S*,3′R*)]-2-[2′-Hydroxy-3′-phenylmethyl-4′-aza-5′-oxo-5′-(2″-trifluoromethylphenyl)pentyl] decahydroisoquinoline-3-N-t-butylcarboxamide]
- SRI CEM IC50 [1]: 1.59 µg/mL
- IC50 [1]: 1430 ng/mL (≈ 2.49 µM)

Compound: Cc1c(O)cccc1C(=O)NC(Cc1ccccc1)C(O)CN1CC2CCCCC2CC1C(=O)NC(C)(C)C (stereo not drawn) [Example 23, [3S-(3R*,4aR*,8aR*,2′S*,3′R*)]-2-[2′-Hydroxy-3′-phenylmethyl-4′-aza-5′-oxo-5′-(2″-methyl-3″-hydroxyphenyl)pentyl] decahydroisoquinoline-3-N-t-butylcarboxamide]
- IC50 [2, 5]: 2.39 nM
- IC90 [2, 6]: 19 nM
- SRI CEM IC50 [1]: 0.00862 µg/mL

Compound: CC(C)c1c(O)cccc1C(=O)NC(Cc1ccccc1)C(O)CN1CC2CCCCC2CC1C(=O)NC(C)(C)C (stereo not drawn) [Example 20, [3S-(3R*,4aR*,8aR*,2′S*,3′R*)]-2-[2′-Hydroxy-3′-phenylmethyl-4′-aza-5′-oxo-5′-(2″-iospropyl-3″-hydroxyphenyl)pentyl] decahydroisoquinoline-3-N-t-butylcarboxamide]
- IC50 [2, 3]: 186 nM
- IC90 [2, 4]: 671 nM
- IC50 [1]: 153 ng/mL (≈ 0.271 µM)

Compound: Cc1c(O)cccc1C(=O)N[C@@H](Cc1ccccc1)[C@H](O)CN1CCN(Cc2cccnc2)C[C@H]1C(=O)NC(C)(C)C [Example 26, [2S-(2R*,2′S*,3′R*)]-1-[2′-Hydroxy-3′-phenylmethyl-4′-aza-5′-oxo-5′-(2″-methyl-3″-hydroxyphenyl)pentyl]-4-(pyrid-3′″-ylmethyl) piperazine-2-N-t-butylcarboxamide]
- IC50 [2, 3]: 56 nM
- IC90 [2, 4]: 166 nM
- IC50 [1]: 49.7 ng/mL (≈ 0.0866 µM)

Compound: CCCCc1c(O)cccc1C(=O)NC(Cc1ccccc1)C(O)CN1CC2CCCCC2CC1C(=O)NC(C)(C)C (stereo not drawn) [Example 21, [3S-(3R*,4aR*,8aR*,2′S*,3′R*)]-2-[2′-Hydroxy-3′-phenylmethyl-4′-aza-5′-oxo-5′-(2″-butyl-3′″-hydroxyphenyl)pentyl] decahydroisoquinoline-3-N-t-butylcarboxamide]
- IC50 [2, 3]: 414 nM
- IC90 [2, 4]: 886 nM
- IC50 [1]: 443 ng/mL (≈ 0.767 µM)

Compound: Cc1c(O)cccc1C(=O)NC(CSc1ccc2ccccc2c1)C(O)CN1CC2CCCCC2CC1C(=O)NC(C)(C)C (stereo not drawn) [Example 24, [3S-(3R*,4aR*,8aR*,2′S*,3′R*)]-2-[2′-Hydroxy-3′-(naphth-2-ylthiomethyl)-4′-aza-5′-oxo-5′-(2″-methyl-3″-hydroxyphenyl)pentyl] decahydroisoquinoline-3-N-t-butylcarboxamide]
- IC50 [2, 3]: 25 nM
- IC50 [1]: 67 ng/mL (≈ 0.108 µM)

Compound: CC(C)(C)NC(=O)C1CC2CCCCC2CN1CC(O)C(Cc1ccccc1)NC(=O)c1ccc[n+]([O-])c1 (stereo not drawn) [Example 5, [3S-(3R*,4aR*,8aR*,2′S*,3′R*)]-2-[2′-Hydroxy-3′-phenylmethyl-4′-aza-5′-oxo-5′-(pyrid-3″yl-N-oxidyl)pentyl] decahydroisoquinoline-3-N-t-butylcarboxamide]
- SRI CEM IC50 [1]: 4.43 µg/mL
- IC50 [1]: 4970 ng/mL (≈ 9.51 µM)

Compound: CCc1c(O)cccc1C(=O)NC(Cc1ccccc1)C(O)CN1CC2CCCCC2CC1C(=O)NC(C)(C)C (stereo not drawn) [Example 3, [3S-(3R*,4aR*,8aR*,2′S*,3′R*)]-2-[2′-Hydroxy-3′-phenylmethyl-4′-aza-5′-oxo-5′-(2″-ethyl-3″-hydroxyphenyl)pentyl] decahydroisoguinoline-3-N-t-butylcarboxamide]
- IC50 [2, 3]: 96.1 nM
- IC90 [2, 4]: 286 nM
- SRI CEM IC50 [1]: 0.0113 µg/mL
- IC50 [1]: 15.2 ng/mL (≈ 0.0276 µM)

Compound: CC(C)(C)NC(=O)C1CC2CCCCC2CN1CC(O)C(Cc1ccccc1)NC(=O)c1cccc(O)c1Cl (stereo not drawn) [Example 11, [3S-(3R*,4aR*,8aR*,2′S*,3′R*)]-2-[2′-Hydroxy-3′-phenylmethyl-4′-aza-5′-oxo-5′-(2″-chloro-3″-hydroxyphenyl)pentyl] decahydroisoquinoline-3-N-t-butylcarboxamide]
- IC50 [2, 3]: 114 nM
- SRI CEM IC50 [1]: 0.338 µg/mL
- IC50 [1]: 420 ng/mL (≈ 0.755 µM)

Compound: CCCc1c(O)cccc1C(=O)NC(Cc1ccccc1)C(O)CN1CC2CCCCC2CC1C(=O)NC(C)(C)C (stereo not drawn) [Example 22, [3S-(3R*,4aR*,8aR*,2′S*,3′R*)]-2-[2′-Hydroxy-3′-phenylmethyl-4′-aza-5′-oxo-5′-(2″-propyl-3″-hydroxyphenyl)pentyl] decahydroisoquinoline-3-N-t-butylcarboxamide]
- IC50 [2, 3]: 400 nM
- IC90 [2, 4]: 798 nM
- IC50 [1]: 136 ng/mL (≈ 0.241 µM)

Compound: Cc1c(N)cccc1C(=O)NC(Cc1ccccc1)C(O)CN1CC2CCCCC2CC1C(=O)NC(C)(C)C (stereo not drawn) [Example 18, [3S-(3R*,4aR*,8aR*,2′S*,3′R*)]-2-[2′-Hydroxy-3′-phenylmethyl-4′-aza-5′-oxo-5′-(2″-methyl-3″-aminophenyl)pentyl] decahydroisoquinoline-3-N-t-butylcarboxamide]
- IC50 [2, 3]: 739 nM
- SRI CEM IC50 [1]: 0.231 µg/mL
- IC50 [1]: 256 ng/mL (≈ 0.479 µM)

Compound: [3S-(3R*,4aR*,8aR*,2′S*,3′S*)]-2-[2′-Hydroxy-3′-phenylmethyl-4′-aza-5′-oxo-5′-[2″-methyl-3″-N-(methylsulfonyl)amino-phenyl)]pentyl] decahydroisoguinoline-3-N-t-butylcarboxamide [Example 36]
- SRI CEM IC50 [1]: 2.43 µg/mL and 1.73 µg/mL

Compound: CC(C)(C)NC(=O)C1CC2CCCCC2CN1CC(O)C(Cc1ccccc1)NC(=O)c1cccc(O)c1F (stereo not drawn) [Example 1, [3S-(3R*,4aR*,8aR*,2′S*,3′R*)]-2-[2′-Hydroxy-3′-phenylmethyl-4′-aza-5′-oxo-5′-(2″-fluoro-3″-hydroxyphenyl)pentyl]decahydroisoquinoline-3-N-t-butylcarboxamide]
- SRI CEM IC50 [1]: 1.38 µg/mL
- IC50 [1]: 1000 ng/mL (≈ 1.85 µM)

Source: US20030216569A1, “Method of making HIV protease inhibitors” (priority 1993, published 2003)
